According to patent US9783551B2, “Pyranochromenyl phenol derivative, and pharmaceutical composition for treating metabolic syndrome or inflammatory disease” (GLACEUM, INC., priority 2013, dated 2017):

Key:
[1] = Chemical stability in 1% HCl in MeOH (HPLC); assay type: physicochemical; details: for stability in words: until 3 days (72 hours)
Description: The relative chemical stability of glabridin of Preparation Example 1, Example 3 (Compound 4), Example 4 (Compound 5) and Example 14 (Compound 15) were compared with each other. That is, 50 mg of each of glabridin, Compound 4, Compound 5, and Compound 15 was exactly weighed, dissolved in 50 ml of 1% HCl in MeOH and 10 ml of 1% NaOH in MeOH, and the concentrations of the compounds were examined by HPLC at each time level of 0, 8 hrs, 12 hrs, 24 hrs, 48 hrs, and 72 hrs. At this time, the concentrations of the compounds remaining in 1% HCl in MeOH and 1% NaOH in MeOH were determined using an internal standard (Compound 14 of Example 13). That is, 10 mg of Compound 14 was exactly weighed and dissolved in 100 ml of acetonitrile, 9 ml of this solution was mixed with 1 ml of the sample aliquoted at each time level, the mixture was analyzed by HPLC, and the concentrations of the compounds in the internal standard and in the above samples were determined by comparing the initial values.
The concentrations of the compounds remaining in 1% HCl in MeOH and 1% NaOH in MeOH at each time level are in the following Table 8 and FIG. 7 and the following Table 9 and FIG. 8, respectively.
The numerical values exceeding 100% in the following Tables 8 and 9 show those measured at a concentration is slightly higher than the initial measurement value, and this is due to the fact that an average value of the measured values was simply shown without considering a statistical error generated during the measurement. Since the measured value of about 95% or more is deemed to have practically no change in concentration, it may be seen that the compounds of the present invention are excellent in chemical stability.

BV2 microglia cells = experiment: BV2 cell NO assay (LPS-induced NO production, Griess reagent); assay type: cell-based; details: Mus musculus, BV-2, LPS 1 μg/ml, 24 hours
Summary of the method: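 BV2 cells; NO suppression tested only at concentrations showing no cytotoxicity in an MTT assay (0.5 mg/ml MTT, absorbance 540 nm). NO read by absorbance at 540 nm; suppression rate taken as the difference in NO produced between control and treated groups; mean of three repeats.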

RAW264.7 macrophages = experiment: RAW264.7 macrophage NO assay (LPS-induced NO production, Griess reagent); assay type: cell-based; details: for IC50: Mus musculus, RAW264.7, NO production, LPS 1 μg/ml, 24 hours; for effect of suppressing the production of NO: RAW264.7 macrophages, in words
Summary of the method: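 MTT (0.5 mg/ml, 4 h) viability read at 540 nm set non-cytotoxic compound concentrations for the NO test. NO suppression, read by absorbance at 540 nm, was the difference in NO between control and treated groups; values are means of three repeats.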

PTP1B = PTP1B (Homo sapiens (Human), UniProt P18031); experiment: Experiment of PTP1B inhibition (p-NPP dephosphorylation); assay type: biochemical; details: 2 mM p-NPP substrate, 30° C., 30 minutes
Chain of PTP1B (P18031 whole entry, species assumed): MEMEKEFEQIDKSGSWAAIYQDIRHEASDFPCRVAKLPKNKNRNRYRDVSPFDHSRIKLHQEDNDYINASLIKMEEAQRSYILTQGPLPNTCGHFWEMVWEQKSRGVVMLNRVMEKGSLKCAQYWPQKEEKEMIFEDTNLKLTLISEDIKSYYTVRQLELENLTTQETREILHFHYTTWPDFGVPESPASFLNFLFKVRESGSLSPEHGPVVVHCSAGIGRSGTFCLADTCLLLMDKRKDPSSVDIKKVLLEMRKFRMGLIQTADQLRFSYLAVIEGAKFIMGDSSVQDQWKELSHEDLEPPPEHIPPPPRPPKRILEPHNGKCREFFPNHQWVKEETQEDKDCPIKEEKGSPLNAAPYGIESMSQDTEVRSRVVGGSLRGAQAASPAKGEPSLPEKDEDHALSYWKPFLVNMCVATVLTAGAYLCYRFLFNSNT
Summary of the method: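 PTP1B reacted with 2 mM p-NPP in 50 mM citrate pH 6.0, 0.1 M NaCl, 1 mM EDTA, 1 mM DTT plus compound at various concentrations, 30 °C for 30 min. Reaction stopped with 1 N NaOH; p-nitrophenol absorbance gives IC50.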

Row | concentration of compound remaining [1]; 0 | concentration of compound remaining ([1]; 8 h) | concentration of compound remaining ([1]; 24 h) | concentration of compound remaining ([1]; 48 h) | concentration of compound remaining ([1]; 72 h) | stability in words [1] | IC50 (BV2 microglia cells) | IC50 (RAW264.7 macrophages) | IC50 (PTP1B) | Compound | effect of suppressing the production of NO (RAW264.7 macrophages)
1 | 100% | 102% | 102% | 101% | 101% | very stable | 3.8 µM | 5.2 µM | 2.8 µM | CCCc1ccc(C2COc3c(ccc4c3CCC(C)(C)O4)C2)c(O)c1 (centres unmarked) [Compound 5, 3-(2-hydroxy-4-propylphenyl)-8,8-dimethyl-2,3,4,8,9,10-hexahydropyrano [2,3-f] chromene] | excellent
2 | 100% | 98% | 100% | 98% | 100% | very stable | 2.7 µM | 6.8 µM | 8.6 µM | CCOc1ccc(C2COc3c(ccc4c3CCC(C)(C)O4)C2)c(O)c1 (centres unmarked) [Compound 15, 3-(2-hydroxy-4-ethoxyphenyl)-8,8-dimethyl-2,3,4,8,9,10-hexahydropyrano [2,3-f] chromene] | excellent
